Data taken from patent US20110229580A1, “COMPOSITIONS AND METHODS FOR NANO-IN-MICRO PARTICLES” (Indian Institute of Technology Bombay, School of …, priority 2010, published 2011).

Assay: Confocal laser scanning microscopy of dye retention in CaCO3 nanoparticles
Type: physicochemical
Conditions: CLSM
Excerpt: Fluorescent images of FITC-dex (70 kDa) loaded CaCO3 nanoparticles were examined using confocal microscopy. Confocal micrographs of micro/nanoparticles were obtained with a flow view confocal laser scanning microscope (CLSM) equipped with a krypton-argon laser (Olympus FluoView™, Japan). An inverted microscope was also used which was equipped with an oil immersion objective lens (40×). The standard filter settings for fluorescence excitation (488 nm) and emission (520 nm) were used.

## O=C1OC2(c3ccc(O)cc3Oc3cc(O)ccc32)c2ccc(N=C=S)cc21 [FITC dye]
  retention in CaCO3 nanoparticles: not retained
